Results on 28 molecules are retold here after US11214556B1, “Method of treating colorectal cancer” (King Abdulaziz University, priority 2019, dated 2022).

Common to all, as to format: cell-based, human
Experiment [1] deals with HCT-116 cells. The experiment in a line: SRB cytotoxicity assay, HCT-116. The following applies: SRB assay, 72 h exposure, ± SEM. On the procedure:
Compounds in this study were tested against colorectal cancer cell line HCT-116, using sulforhodamine-B (SRB) assay. See Skehan, P.; Storeng, R.; Scudiero, D.; Monks, A.; McMahon, J.; Vistica, D.; Warren, J. T.; Bokesch, H.; Kenney, S.; Boyd, M. R., New colorimetric cytotoxicity assay for anticancer-drug screening. J Natl Cancer Inst 1990, 82 (13), 1107-12, incorporated herein by reference in its entirety. […] However, it was clear that compounds bearing hydrophobic aliphatic groups such as MOS-1505 and MOS-1512 are clearly favored in providing anticancer activities. […] The N-aryl substituents were less advantageous in both potency and solubility.
(§1) Different cell lines were originally purchased from American type culture collection (ATCC, Wesel, Germany) and grown in the tissue culture lab of the Egyptian company for production of vaccines, sera and drugs (Vacsera, Giza, Egypt). The cells were transferred to our laboratory and maintained in the appropriate media as following. HCT-116, CACO-2, and HT-29 (human colon cancer cell lines) were maintained in Roswell Park Memorial Institute medium (RPMI1640) (Invitrogen, Carlsbad, Calif.). The mouse skin fibroblasts (C-166) and Baby Hamster Kidney fibroblasts (BHK) were grown in Dulbecco Modified Eagle's medium (DMEM). Both media were supplemented with 1% of […] of streptomycin, 100 units/mL of penicillin and 10% of heat-inactivated fetal bovine serum (Invitrogen, Carlsbad, Calif.) in a humidified, 5% (v/v) CO2 atmosphere at 37° C.
(§2) The sulforhodamine B (SRB) assays were performed according to Skehan, P.; Storeng, R.; Scudiero, D.; Monks, A.; McMahon, J.; Vistica, D.; Warren, J. T.; Bokesch, H.; Kenney, S.; Boyd, M. R., New colorimetric cytotoxicity assay for anticancer-drug screening. J Natl Cancer Inst 1990, 82 (13), 1107-12, incorporated herein by reference in its entirety. Briefly, exponentially growing cells were trypsinized, counted and seeded at the appropriate densities (5000 cells/100 μL/well) into 96-well microtiter plates. Cells were incubated in a humidified atmosphere at 37° C. for 24 h. Then, the cells were exposed to different compounds at the desired concentrations, (0.01, 0.1, 1, 10, and 100 μM) or to 1% dimethyl sulfoxide (DMSO) for 72 h. At the end of the treatment period, the media were removed, and the cells were fixed with 10% trichloroacetic acid at 4° C. for 1 hr. Following, the cells were washed with tap water four times and incubated with SRB 0.4% for 30 min. Excess dye was removed by washing repeatedly with 1% (vol/vol) acetic acid. The protein-bound dye was dissolved in 10 mM Tris base solution for (optical density) OD determination at 510 nm using a SpectraMax plus Microplate Reader (Molecular Devices, CA). Cell viability was expressed relative to the untreated control cells.

For experiment [2], the system named is CACO-2 cells. The experiment in a line: SRB cytotoxicity assay, CACO-2. The following applies: ± SEM.
From the text: (§3) Based on the favorable pharmacologic and physicochemical properties of MOS-1512, it was selected as a new lead for the second subset of compounds (MOS-1812 to MOS-5112). The compounds in this series contained variable groups at R^1 and R^2 that were all tested against the three cancer cell lines (HCT-116, Caco-2 and HT-29).
as §1, §2
In general terms: Sulforhodamine B stains cellular protein and so reports cell mass.

Experiment [3] relates to HT-29 cells. The experiment in a line: SRB cytotoxicity assay, HT-29. The following applies: 72 h exposure, ± SEM.
From the text: as §3, §1, §2

Setting [4] is: Homo sapiens, Caco-2, 72 h exposure.

A word on the IC50: it is the concentration that gives 50% inhibition. High values mean a need for much substance, low ones inhibition by little substance. In experiment [1] (Homo sapiens, HCT-116), `NC(=O)/C(=C/c1ccccc1)NC(=O)/C=C/c1ccccc1` [Compound 1508, N—[(Z)-3-amino-3-oxo-1-phenylprop-1-en-2-yl]-(E)-cinnamamide] registered an IC50 of over 100 µM.

`CN1CCN(NC(=O)/C(=C/c2ccccc2)NC(=O)/C=C/c2ccccc2)CC1` [Compound 1511, (Z)-2-[(E)-cinnamamido]-N-(4-methyl-1-piperazinyl)-3-phenyl-acrylamide] yielded an IC50 in experiment [1] (Homo sapiens, HCT-116) of over 100 µM.

In the case of `N#Cc1cccc(NC(=O)/C(=C/c2ccccc2)NC(=O)/C=C/c2ccccc2)c1` [Compound 1513, (Z)-2-[(E)-cinnamamido]-N-(3-cyanophenyl)-3-phenyl-acrylamide], the IC50 in experiment [1] (Homo sapiens, HCT-116) was over 100 µM.

`O=C(/C=C/c1ccccc1)N/C(=C\c1ccccc1)C(=O)Nc1ccc(F)cc1` [Compound 1528, (Z)-2-[(E)-cinnamamido]-N-(4-fluorophenyl)-3-phenylacrylamide]: the IC50 in experiment [1] (Homo sapiens, HCT-116) turned out to be 91.9 ± 4.4 µM.

`O=C(/C=C/c1ccccc1)N/C(=C\c1ccccc1)C(=O)NCc1ccco1` [Compound 1530, (Z)-2-[(E)-cinnamamido]-N-(2-furylmethyl)-3-phenyl-acrylamide]: in experiment [1] (Homo sapiens, HCT-116), the IC50 was over 100 µM.

As to `O=C(/C=C/c1ccccc1)N/C(=C\c1ccccc1)C(=O)NCCN1CCOCC1` [Compound 1531, (Z)-2-[(E)-cinnamamido]-N-(2-morpholinoethyl)-3-phenyl-acrylamide], the IC50 in experiment [1] (Homo sapiens, HCT-116) is over 100 µM.

`O=C(C=Cc1ccccc1)N/C(=C\c1ccccc1)C(=O)N1CCOCC1` [Compound 1536, N—[(Z)-3-morpholino-3-oxo-1-phenylprop-1-en-2-yl]cinnamamide]: the IC50 in experiment [1] (Homo sapiens, HCT-116) was over 100 µM.

`O=C(C=Cc1ccccc1)N/C(=C\c1ccccc1)C(=O)N1CCCC1` [Compound 1555, N—[(Z)-3-(1-pyrrolidinyl)-3-oxo-1-phenylprop-1-en-2-yl]cinnamamide] yielded a half-maximal inhibitory concentration (IC50) in experiment [1] (Homo sapiens, HCT-116) of over 100 µM.

`CCCCNC(=O)/C(=C/c1ccccc1)NC(=O)/C=C/c1ccccc1` [Compound 1556, (Z)—N-(n-butyl)-2-[(E)-cinnamamido]-3-phenylacrylamide] had an IC50 in experiment [1] (Homo sapiens, HCT-116) of 67.2 ± 6.3 µM.

`CCC(C)NC(=O)/C(=C/c1ccccc1)NC(=O)C=Cc1ccccc1` (stereo not shown) [Compound 1557, (Z)—N-(sec-butyl)-2-cinnamamido-3-phenylacrylamide] returned a half-maximal inhibitory concentration (IC50) in experiment [1] (Homo sapiens, HCT-116) of 52.4 ± 7.1 µM.

For `CCNC(=O)/C(=C/c1ccccc1)NC(=O)/C=C/c1ccccc1` [Compound 1558, (Z)-2-[(E)-cinnamamido]-N-ethyl-3-phenylacrylamide], in experiment [1] (Homo sapiens, HCT-116), the IC50 is over 100 µM.

Molecule `CCN(C)C(=O)/C(=C/c1ccccc1)NC(=O)C=Cc1ccccc1` [Compound 1559, (Z)-2-cinnamamido-N-ethyl-N-methyl-3-phenylacrylamide] had an IC50 in experiment [1] (Homo sapiens, HCT-116) of 28.8 ± 1 µM.

For `CCCNC(=O)/C(=C/c1ccccc1)NC(=O)/C=C/c1ccc(Cl)cc1` [Compound 1812, (Z)-2-[(E)-3-(4-chlorophenyl)acrylamido]-3-phenyl-N-propylacrylamide], the IC50 stood at 10.7 ± 0.5 µM in experiment [2] (setting [4]); 10.3 ± 0.34 µM in experiment [1] (Homo sapiens, HCT-116); 7.9 ± 0.43 µM in experiment [3] (Homo sapiens, HT-29, monolayer).

With `CCCNC(=O)/C(=C/c1ccccc1)NC(=O)/C=C/c1ccc(OC)cc1` [Compound 1912, (Z)-2-[(E)-3-(4-methoxyphenyl)acrylamido]-3-phenyl-N-propylacrylamide], the IC50 in experiment [2] (setting [4]) came to 18.5 ± 1.5 µM; in experiment [1] (Homo sapiens, HCT-116), 34.1 ± 1.8 µM; in experiment [3] (Homo sapiens, HT-29, monolayer), 55.3 ± 3.2 µM.

`CCCNC(=O)/C(=C/c1ccccc1)NC(=O)/C=C/c1ccc(C)cc1` [Compound 2012, (Z)-3-phenyl-N-propyl-2-[(E)-3-(p-tolyl)acrylamidolacry]amide]: the IC50 was 12.7 ± 0.67 µM in experiment [2] (72 h exposure), 35.2 ± 0.54 µM in experiment [1] and 54.1 ± 0.42 µM in experiment [3] (monolayer).

With `CCCNC(=O)/C(=C/c1ccccc1)NC(=O)/C=C/c1cccs1` [Compound 2112, (Z)-3-phenyl-N-propyl-2-[(E)-3-(thien-2-yl)acrylamidolacry]amide], the values for the IC50 in experiment [2] (72 h exposure), in experiment [1] and in experiment [3] (monolayer) were 27.8 ± 1.3 µM, 43 ± 1.5 µM and 43.2 ± 2.3 µM, respectively.

In the case of `CCCNC(=O)/C(=C/c1ccc(F)cc1)NC(=O)C=Cc1ccccc1` [Compound 2212, (Z)-2-cinnamamido-3-(4-fluorophenyl)-N-propylacrylamide], the IC50 in experiment [2] (setting [4]) was 13.2 ± 1 µM; in experiment [1] (Homo sapiens, HCT-116), 15.2 ± 1.2 µM; in experiment [3] (Homo sapiens, HT-29, monolayer), 7.2 ± 0.31 µM.

As for `CCCNC(=O)/C(=C/c1ccc(F)cc1)NC(=O)/C=C/c1ccc(OC)cc1` [Compound 2412, (Z)-3-(4-fluorophenyl)-2-[(E)-3-(4-methoxyphenyl)acrylamido]-N-propylacrylamide], the IC50 in experiment [2] (setting [4]) amounted to 45.7 ± 1.2 µM; in experiment [1] (Homo sapiens, HCT-116) it was 29.3 ± 1.2 µM; in experiment [3] (Homo sapiens, HT-29, monolayer), 86.5 ± 2.9 µM.

Consider `CCCNC(=O)/C(=C/c1ccc(F)cc1)NC(=O)/C=C/c1ccc(C)cc1` [Compound 2512, (Z)-3-(4-fluorophenyl)-N-propyl-2-[(E)-3-(p-tolyl)acrylamidolacry]amide], for which the IC50 in experiment [2] (72 h exposure) turned out to be 5.1 ± 0.17 µM; in experiment [1], 6.7 ± 0.36 µM; in experiment [3] (monolayer) it was 11.8 ± 0.18 µM.

`CCCNC(=O)/C(=C/c1ccc(F)cc1)NC(=O)/C=C/c1cccs1` [Compound 2612, (Z)-3-(4-fluorophenyl)-N-propyl-2-[(E)-3-(thien-2-yl)acrylamidolacry]amide]: the results for the IC50 in experiment [2] (72 h exposure), in experiment [1] and in experiment [3] (monolayer) were 10.7 ± 0.68 µM, 17.3 ± 0.13 µM and 7.68 ± 0.05 µM, respectively.

Turning to `CCCNC(=O)/C(=C/c1ccc(N(C)C)cc1)NC(=O)C=Cc1ccccc1` [Compound 2712, (Z)-2-cinnamamido-3-[4-(dimethylamino)phenyl]-N-propylacrylamide], the IC50 is 4.24 ± 0.09 µM in experiment [2] (setting [4]); 6.95 ± 0.46 µM in experiment [1] (Homo sapiens, HCT-116); 6.8 ± 0.05 µM in experiment [3] (Homo sapiens, HT-29, monolayer).

With `CCCNC(=O)/C(=C/c1ccc(N(C)C)cc1)NC(=O)/C=C/c1ccc(OC)cc1` [Compound 2912, (Z)-3-[4-(dimethylamino)phenyl]-2-[(E)-3-(4-methoxyphenyl)acrylamido]-N-propylacrylamide], the half-inhibitory concentration (IC50) in experiment [2] (setting [4]) came out at 15.3 ± 0.05 µM; in experiment [1] (Homo sapiens, HCT-116), 12.4 ± 0.25 µM; in experiment [3] (Homo sapiens, HT-29, monolayer), 36.9 ± 0.25 µM.

With `CCCNC(=O)/C(=C/c1ccc(N(C)C)cc1)NC(=O)/C=C/c1ccc(C)cc1` [Compound 3012, (Z)-3-[4-(dimethylamino)phenyl]-N-propyl-2-[(E)-3-(p-tolyl)acrylamidolacry]amide], the figures for the IC50 in experiment [2] (72 h exposure), in experiment [1] and in experiment [3] (monolayer) were 29.4 ± 0.08 µM, 22.1 ± 0.1 µM and 39.6 ± 0.22 µM, respectively.

As for `CCCNC(=O)/C(=C/c1ccc(N(C)C)cc1)NC(=O)/C=C/c1cccs1` [Compound 3112, (Z)-3-[4-(dimethylamino)phenyl]-N-propyl-2-[(E)-3-(thien-2-yl)acrylamidolacry]amide], the IC50 in experiment [2] (72 h exposure) is 27.7 ± 3.7 µM; in experiment [1], 11.6 ± 0.39 µM; in experiment [3] (monolayer) it was 66.5 ± 0.1 µM.

For the molecule `CCCNC(=O)/C(=C/c1ccc(O)c(OC)c1)NC(=O)C=Cc1ccccc1` [Compound 3212, (Z)-2-cinnamamido-3-(4-hydroxy-3-methoxyphenyl)-N-propylacrylamide], the IC50 in experiment [2] (setting [4]) was 6.32 ± 0.02 µM; in experiment [1] (Homo sapiens, HCT-116), over 100 µM; in experiment [3] (Homo sapiens, HT-29, monolayer), 9.14 ± 0.23 µM.

As to `CCCNC(=O)/C(=C/c1ccc(O)c(OC)c1)NC(=O)/C=C/c1ccc(Cl)cc1` [Compound 3312, (Z)-2-[(E)-3-(4-chlorophenyl)acrylamido]-3-(4-hydroxy-3-methoxyphenyl)-N-propylacrylamide], the IC50 in experiment [2] (setting [4]) was 6.1 ± 0.44 µM; in experiment [1] (Homo sapiens, HCT-116), 37.8 ± 1.8 µM; in experiment [3] (Homo sapiens, HT-29, monolayer), 5.4 ± 0.34 µM.

Turning to `CCCNC(=O)/C(=C/c1ccc(O)c(OC)c1)NC(=O)/C=C/c1ccc(OC)cc1` [Compound 3412, (Z)-3-(4-hydroxy-3-methoxyphenyl)-2-[(E)-3-(4-methoxyphenyl)acrylamido]-N-propylacrylamide], the IC50 was determined as 18 ± 1.2 µM in experiment [2] (setting [4]); 38.4 ± 2.1 µM in experiment [1] (Homo sapiens, HCT-116); 48.6 ± 0.4 µM in experiment [3] (Homo sapiens, HT-29, monolayer).

In experiment [1] (Homo sapiens, HCT-116), `O=C/C=C/c1ccccc1` [tCA, trans-cinnamaldehyde, reference compound] returned an IC50 of 12.4 ± 1.2 µM.
